Results published in patent publication US6602514B1, “Use of ectoine or ectoine derivatives in cosmetic formulations” (Merck Patent GmbH, priority 1998, dated 2003).

Assays:
[1] = tested on: skin barrier (forearm skin of the subjects); assay: In vivo determination of the transepidermal water loss (TEWL) following damage to the skin barrier by SDS treatment; set-up: species or system human; conditions: N=5; for TEWL after SDS stress: then 2% SDS, occlusion 24 h; for TEWL after ectoin treatment for 1 week: 2 mg/cm^2 twice daily, forearm; for TEWL before treatment: baseline, 22° C., 60% humidity
Experimental: Using the skincare creams (0/W) comprising ectoin described in. Example 4, an in vivo determination of the transepidermal water loss (TEWL) following damage to the skin barrier by SDS treatment is carried out. Firstly, the skin of the subjects (N=5) on the forearm is treated for one week twice daily with the O/W emulsion (2 mg/cm^2) comprising 2% and 5% of ectoin and an emulsion without ectoin (placebo). In order to increase the TEWL artificially as a result of damage to the horny barrier, the skin is then treated with 80 μl of sodium dodecyl sulfate (SDS; 2% in water) in an aluminum chamber with occlusion for 24 h. The TEWL determination is carried out in a climatically controlled room at 22° C. and an atmospheric humidity of 60% using a TM210 TEWA meter. […] The values for FIG. 1 are given in Tab. 1.

[2] = tested on: human erythrocytes; assay: RBC test: membrane-stabilizing action on ectoin pretreated erythrocytes against SDS; format: cell-based
Experimental: To determine the cell membrane- and protein-damaging action of surfactants, the RBC Test can, for example, be used. For this, the erythrocytes are incubated e.g. with sodium dodecyl sulfate (SDS), for example for a period of 10 minutes. SDS destabilizes the membrane of untreated cells such that the cells are partially lysed and their contents such as the hemoglobin are released. The hemoglobin released during cell-wall damage serves as an indicator for the spectrophotometric determination of the membrane damage by SDS. By reference to the hemoglobin released, it is possible to determine the number of destroyed erythrocytes.
Using an aqueous ectoin solution buffered in PBS buffer (22.2 mmol/l of disodium hydrogenphosphate, 5.6 mmol/l of potassium dihydrogenphosphate, 123.3 mmol/l of sodium chloride and 10 mmol/l of glucose), a determination of the membrane-stabilizing action of ectoin pretreated human erythrocytes against SDS is carried out. The RBC test is used here. The percentage membrane stabilization of cells pretreated with ectoin is determined.
Human erythrocytes (2×10^8 cells/ml) are treated for 1 hour with 0%, 0.1%, 0.5%, 1% and 5% of ectoin. The cells are then stressed for 10 min with 0 to 0.04% SDS solution. Then, spectrophotometry is used to determine how many cells have been lysed by reference to the free hemoglobin content. […] The experiment is carried out N=5 times.
In addition, human erythrocytes (2×10^8 cells/ml) are treated with 1% of ectoin for 0 (control), 6, 18 and 24 hours. The cells are then stressed for 10 min with 0 to 0.04% of SDS solution. Then, spectrophotometry is used to determine how many cells have been lysed by reference to the free hemoglobin content. […] The experiment is carried out N=5 times.

`CC1=N[C@H](C(=O)O)CCN1` [ectoin, (S)-1,4,5,6-tetrahydro-2-methyl-4-pyrimidecarboxylic acid] was tested, and the “TEWL after SDS stress” value ([1]; O/W emulsion with 2% of ectoin for 1 week) was 14.2 g/m^2/h, the “TEWL after ectoin treatment for 1 week” value ([1]; O/W emulsion with 2% of ectoin) was 5.6 g/m^2/h and the “TEWL after SDS stress” value ([1]; O/W emulsion with 5% of ectoin for 1 week) was 10.8 g/m^2/h. The “TEWL after ectoin treatment for 1 week” value ([1]; O/W emulsion with 5% of ectoin) was 5.6 g/m^2/h, the TEWL before treatment ([1]; test area for the O/W emulsion with 2% of ectoin) was 5.6 g/m^2/h and the TEWL before treatment ([1]; test area for the O/W emulsion with 5% of ectoin) was 5.1 g/m^2/h. The “dependence of the protective effect on ectoin concentration” value ([2]; 0.1%, 0.5%, 1%, 5% of ectoin, 1 hour, FIG. 3) was “The higher the ectoin concentration, the greater the protective effect”, the “dependence of the protective effect on duration of pretreatment” value ([2]; 1% of ectoin for 6, 18, 24 hours, FIG. 4) was “The longer the cells are pretreated with ectoin, the greater the protective effect” and the “protection of erythrocytes against membrane damage by SDS” value ([2]; 1 hour pretreatment with 0.1-5% of ectoin, 10 min 0 to 0.04% SDS, FIG. 3) was “protects the cells against damage by SDS”.
